Data as given in US10647677B2, “Analogues of hydroxychloroquine (HCQ) without retinal toxicity” (Inoviem Scientific, priority 2015, dated 2020).

Columns and labels:
myeloperoxidase (MPO) = molecular target: T1, myeloperoxidase (MPO) (Homo sapiens, UniProt P05164); experiment: Surface plasmon resonance (Biacore 3000) affinity on MPO; type: binding; details: SPR at 25° C.
T1 construct: purchased
T1 sequence (P05164 49-745): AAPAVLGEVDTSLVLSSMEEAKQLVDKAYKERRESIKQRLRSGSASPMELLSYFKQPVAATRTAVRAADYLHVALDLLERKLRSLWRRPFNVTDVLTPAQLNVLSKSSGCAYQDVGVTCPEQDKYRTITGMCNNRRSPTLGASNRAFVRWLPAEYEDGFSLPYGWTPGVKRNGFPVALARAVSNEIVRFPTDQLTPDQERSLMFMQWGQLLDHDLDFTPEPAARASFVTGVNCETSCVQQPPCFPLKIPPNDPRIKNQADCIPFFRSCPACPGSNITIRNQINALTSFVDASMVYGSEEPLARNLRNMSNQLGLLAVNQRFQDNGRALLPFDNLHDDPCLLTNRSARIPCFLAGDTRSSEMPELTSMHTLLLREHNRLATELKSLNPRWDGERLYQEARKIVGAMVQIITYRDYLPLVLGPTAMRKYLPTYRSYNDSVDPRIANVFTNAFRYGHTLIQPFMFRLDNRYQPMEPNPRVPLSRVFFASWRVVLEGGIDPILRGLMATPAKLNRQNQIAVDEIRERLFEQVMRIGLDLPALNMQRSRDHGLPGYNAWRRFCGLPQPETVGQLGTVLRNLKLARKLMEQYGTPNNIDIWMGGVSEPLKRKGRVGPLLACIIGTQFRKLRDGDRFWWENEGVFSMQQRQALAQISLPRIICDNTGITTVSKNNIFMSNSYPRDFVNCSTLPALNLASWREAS
Protocol: Using the surface plasmon resonance technology (Biacore 3000), the interaction constants between HCQ analogues (HCQa) and myeloperoxidase (MPO) targets and αB-crystalline (αB-C) were measured at 25° C. according to 12 different series of experiments. First, HCQ analogues at five different concentrations (10^−6 to 10^−8 M) were injected at a rate of 10^−6 L/min for 250 s on the MPO and αB-C targets as well as on the ERK1 and ERK2 controls, followed by a dissociation phase of 150 s.
The kinetic parameters were measured using the BIAevaluation 4.1 software. The set of resonance unit values obtained with the controls were subtracted from those obtained with MPO and αB-C to compensate for non-specific bonds.
The differences in Kd values for the myeloperoxidase (MPO) and αB-crystalline (αB-C) enzymes in Tables 1 and 2 are due to the variability of commercial batches. Nevertheless, the difference between the Kd of the compounds HCQ and CB137 remains identical according to these two tests.
Analysis of the compounds in the form of sulphate salts according to the method described above: […]

retina of mice = experiment: Determination of retinopathy: histological analysis of the retina; type: in vivo; details: HCQ 10 mg/kg or CB137 5, 10 and 15 mg/kg, 5 times weekly for 62 days (FIGS. 3 and 4)
Protocol: Histology: 7-week-old mice are injected with 10 mg/kg HCQ or 5, 10 and 15 mg/kg of the CB137 analog 5 times weekly for a period of 62 days. After assigning them a number, the mice are randomized according to their weight and treatment. The mice are divided in groups of 5 in cages, one mouse being treated with the carrier, one with HCQ 10 mg/kg, one with CB137 5 mg/kg, one with CB137 10 mg/kg and one with CB137 15 mg/Kg. The mice are housed in an environment maintained at a temperature of 22° C., 35-55% humidity and with 12-hour cycles of light/darkness.
At the end of the experiment, the mice are euthanized by cervical dislocation. The eyeballs are isolated and stored in a solution containing 4% paraformaldehyde, 5% glutaraldehyde and 0.1 M sodium cacodylate overnight at 4° C. The samples are washed, dehydrated and embedded in paraffin. The 4-μm retinal sections are stained with 1% toluidine blue followed by 1% methylene blue. The retinal toxicity of the samples is then determined by analysis of the sections under microscope.

[1] = system: MRL/Ipr mice (lupus model); experiment: Development of the disease: dermatitis in MRL/Ipr mice; type: in vivo; details: 10 mg/kg, compared to carrier and HCQ 10 mg/kg (FIG. 2)
Protocol: (§1) The MRL/MPJ-Fas (Ipr) (MRL-Ipr) and C57Bl/6 mice for the behavioral experiments are from the Jackson Laboratory and are randomly distributed into 5 groups. All animals were kept at controlled temperature (23° C.+/−1° C.) with a 12-hour day/night cycle, water and ad libitum food.
(§2) Mice received the specified dose of hydroxychloroquine (Tokyo Chemical Industry), CB137 or carrier intraperitoneally (IP), every 24 hours and for 5 days over a 10-week period. With regard to the MRL/Ipr mice, treatment started at 7 weeks of age, and ended at 23 weeks of age where a significant proportion of untreated mice died. With regard to the C57B1/6 mice, the same treatment program was carried out and the mice were sacrificed after […]. HCQ and CB137 were each freshly prepared in physiological saline and injected into the mice in a final volume of 50 μL. The MRL/Ipr mice were examined daily for skin lesions. For histological analysis, the animals were sacrificed and the tissues were rapidly dissected and immediately post-fixed.
Dermatitis was less common in mice treated with CB137 10 mg/kg compared to control (carrier) mice and HCQ treated mice (10 mg/kg (FIG. 2).

[2] = system: MRL/Ipr mice (lupus model); experiment: Survival of MRL/Ipr mice (lupus model); type: in vivo; details: 10 mg/kg IP, compared with HCQ at the same dose (FIG. 1)
Protocol: as §1, §2

[3] = Table 2, compounds in the form of sulphate salts

| Structure (SMILES) | Kd (myeloperoxidase (MPO); Table 1) [nM] | Kd (myeloperoxidase (MPO); [3]) [nM] | retinal lesions (histology) (retina of mice) | dermatitis (rate of mice having dermatitis) [1] | survival rate [2] |
| --- | --- | --- | --- | --- | --- |
| CCN(CCO)CCCC(C)Nc1c(Cl)cnc2cc(Cl)ccc12 (centres unmarked) [CB137] | 6.59 | 60 | does not induce more lesions than in the control mice | less common | significantly higher survival rate |
| CCN(CCO)CCCC(C)Nc1ccnc2cc(Cl)ccc12 (centres unmarked) [Commercial HCQ, hydroxychloroquine] | 710 | 4000 | induces retinal lesions |  |  |
